Assay results: EP0377489A2, “Purified C5a receptor from human polymorphonuclear leukocytes” (MERCK & CO. INC., priority 1989, dated 1990)

Legend:
[1] = system: C5a receptor from PMN membranes; experiment: Release of binding sites from the membrane: total binding activity of detergent extracts at saturation compared with intact membrane; set-up: species or system human
Experimental: In additional experiments (results not shown) the ability of digitonin and β-dodecyl maltoside to release binding sites from the membrane was determined by comparing the total binding activity of the extracts, at saturation, with that of an equivalent amount of intact membrane. In the two experiments in which a direct comparison was made the efficiencies of the detergents appeared to be similar, both solubilized 30-35% of the receptors initially present in the membrane. However, over the course of the work we did observe variability from experiment to experiment and it is our impression that, on average, digitonin was more efficient than β-dodecyl maltoside (for an example, see Table I).

solubilized C5a receptor = experiment: Inhibition of C5a binding to solubilized or purified receptor by nucleotides; set-up: species or system human
Experimental: -All assays, except where noted, were performed at 4°C, with freshly thawed membranes or freshly prepared soluble receptor. To assay intact membranes, assay buffer (50 mM HEPES, pH 7.2, containing 1 mM CaCl₂, 5 mM MgCl₂, 0.1 mM PMSF, 0.1% bacitracin, and 0.5% bovine serum albumin), ¹²⁵I-C5a (typically 0.1 ng), and membrane (typically 0.5 µg) were added sequentially to a final volume of 200 µl. After incubation for 60-90 minutes 2 ml of assay buffer was added, the solution mixed, and the sample filtered through either a Whatman® GF/C filter treated with 0.33% polyethyleneimine or an untreated Millipore®GVWP filter. […] The filters were then counted in a Packard 460 γ-counter. Nonspecific backgrounds were determined by including 20 ng or more of unlabled C5a in the incubation mixture. To assay soluble receptor, assay buffer, solubilized membrane (typically 5 µl) and ¹²⁵I-C5a were mixed to a final volume of 200 µl and incubated for 15-30 minutes, at which time 500 µl of 0.1% bovine γ-globulin and 500 µl of 30% polyethylene glycol were added sequentially with vigorous mixing. After an additional 5 minutes, the sample was filtered and washed with 2 ml of a 9% PEG solution. (Precipitation is essentially complete in less than one minute and the precipitated receptor-­ligand complex is stable for more than 30 minutes.)
As shown in Figure 5 membranes were solubilized in digitonin and assayed for binding activity in the presence of increasing amounts of GTPγS.

| Structure (SMILES) | receptors initially present in the membrane solubilized [1] | maximum inhibition of C5a binding (solubilized C5a receptor; digitonin solubilized membranes) [%] | IC50 (solubilized C5a receptor; inhibition of C5a binding, digitonin solubilized membranes, read-out: IC₅₀) [nM] | inhibition of binding of C5a to the purified receptor (solubilized C5a receptor; purified receptor, 3 different preparations) |
| --- | --- | --- | --- | --- |
| CCCCCCCCCCCCO[C@@H]1O[C@H](CO)[C@@H](O[C@H]2O[C@H](CO)[C@@H](O)[C@H](O)[C@H]2O)[C@H](O)[C@H]1O [β-Dodecyl maltoside] | 30-35% | – | – | – |
| Nc1nc2c(ncn2[C@@H]2O[C@H](COP(=O)(O)OP(=O)(O)OP(O)(O)=S)[C@@H](O)[C@H]2O)c(=O)[nH]1 [GTPγS] | – | 85 | 10 | 27-50% |
